Key:
[1] = molecular target: metalloprotease LF (lethal factor) (Bacillus anthracis, UniProt P15917); test: biochemical
Akt1 = Akt1 (Homo sapiens, UniProt P31749); test: Selectivity profile: Akt1; assay type: biochemical
[2] = Insulin tolerance test in insulin insensitive db/db mice; assay type: in vivo; conditions: 25 mg/kg i.p. once, 30 minutes prior to insulin injection

Chain of metalloprotease LF (lethal factor) (P15917 34-809 limits assumed): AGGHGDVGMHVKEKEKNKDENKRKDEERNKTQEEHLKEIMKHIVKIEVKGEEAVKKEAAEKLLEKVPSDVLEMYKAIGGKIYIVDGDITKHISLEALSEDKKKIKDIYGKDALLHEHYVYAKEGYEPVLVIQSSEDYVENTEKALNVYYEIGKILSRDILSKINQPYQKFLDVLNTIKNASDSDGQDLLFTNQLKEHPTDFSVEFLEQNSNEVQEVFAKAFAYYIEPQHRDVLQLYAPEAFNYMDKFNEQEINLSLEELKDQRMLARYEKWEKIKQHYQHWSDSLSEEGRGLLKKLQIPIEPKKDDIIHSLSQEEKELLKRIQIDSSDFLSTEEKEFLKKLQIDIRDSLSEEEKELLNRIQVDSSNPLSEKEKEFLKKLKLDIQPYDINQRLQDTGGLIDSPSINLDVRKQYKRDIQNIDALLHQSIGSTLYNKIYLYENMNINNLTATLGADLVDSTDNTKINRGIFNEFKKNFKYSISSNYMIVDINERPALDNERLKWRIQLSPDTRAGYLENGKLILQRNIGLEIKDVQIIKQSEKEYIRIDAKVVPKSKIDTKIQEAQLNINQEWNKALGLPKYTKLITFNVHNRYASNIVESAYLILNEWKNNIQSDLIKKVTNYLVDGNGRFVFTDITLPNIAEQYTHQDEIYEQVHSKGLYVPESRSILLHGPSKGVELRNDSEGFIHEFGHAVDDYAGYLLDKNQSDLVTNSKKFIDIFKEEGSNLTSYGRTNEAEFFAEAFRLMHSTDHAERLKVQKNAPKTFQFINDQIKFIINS
Chain of Akt1 (P31749 whole entry, species assumed): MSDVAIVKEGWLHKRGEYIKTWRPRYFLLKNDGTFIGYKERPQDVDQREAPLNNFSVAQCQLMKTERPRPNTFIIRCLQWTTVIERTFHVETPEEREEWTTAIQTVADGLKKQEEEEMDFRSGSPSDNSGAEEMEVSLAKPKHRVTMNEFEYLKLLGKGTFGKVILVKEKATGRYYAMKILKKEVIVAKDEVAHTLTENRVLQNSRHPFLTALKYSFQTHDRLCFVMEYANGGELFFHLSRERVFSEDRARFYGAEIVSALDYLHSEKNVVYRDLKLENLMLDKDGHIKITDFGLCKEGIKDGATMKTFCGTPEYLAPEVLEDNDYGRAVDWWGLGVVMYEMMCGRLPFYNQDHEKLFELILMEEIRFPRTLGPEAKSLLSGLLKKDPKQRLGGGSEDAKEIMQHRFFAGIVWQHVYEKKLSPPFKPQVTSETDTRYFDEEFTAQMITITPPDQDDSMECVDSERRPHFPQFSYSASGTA

| Compound | IC50 [1] | activity against Akt kinase (Akt1) | effect of insulin on blood glucose levels compared to the vehicle control [2] |
| --- | --- | --- | --- |
| O=c1[nH]nc(Sc2ncc([N+](=O)[O-])s2)n1-c1ccc([N+](=O)[O-])cc1 [Compound 3j, 4-(4-nitrophenyl)-5-(5-nitrothiazol-2-ylthio)-4H-1,2,4-triazol-3-ol] | > 100 µM | – | – |
| Cn1cccc1-c1nnc(Sc2ncc([N+](=O)[O-])s2)n1-c1ccc(Cl)cc1Cl [Compound 7b, 2-(4-(2,4-dichlorophenyl)-5-(1-methyl-1H-pyrrol-2-yl)-4H-1,2,4-triazol-3-ylthio)-5-nitrothiazole] | > 100 µM | – | – |
| O=[N+]([O-])c1cnc(Sc2nnc(Sc3ncc([N+](=O)[O-])s3)s2)s1 [Compound 8f, 2,5-bis(5-nitrothiazol-2-ylthio)-1,3,4-thiadiazole] | > 100 µM | – | – |
| Nc1nnc(Sc2ncc([N+](=O)[O-])s2)s1 [Compound 9, 5-(5-nitrothiazol-2-ylthio)-1,3,4-thiadiazol-2-amine] | > 100 µM | completely inactive | statistically significant reduction in blood glucose levels |

From article PMC2667321 (Journal of medicinal chemistry, 2009)
